The values that follow come from PMC11009276, “Design, synthesis, biological assessment and molecular modeling studies of novel imidazothiazole-thiazolidinone hybrids as potential anticancer and anti-inflammatory agents” (Scientific Reports, 2024).

Where only a bound is given, the exact number is not on record here.

Data set [1] concerns carrageenan-induced rat hind paw edema. Briefly: Carrageenan-induced rat paw edema inhibition assay. Format: in vivo. The settings on record: after 4 h; for % inhibition (paw edema) / Increase in Paw volume SEM: oral 0.0314 mmol/kg; for Increase in Paw volume SEM: n = 6; for Activity relative to standard drug: relative to diclofenac sodium. As to the method:
The anti-inflammatory efficacy of the newly synthesised compounds was assessed using a carrageenan-induced rat hind paw edema technique The animals were divided into groups of six at random, fasted for 24 h before to the experiment, and given free access to water. 0.5% CMC solution was given to the control group only. […] One hour after the administration of the test compounds and the reference drug, 0.1 mL of a 1% carrageenan solution in saline was subcutaneously injected into the subplantar area of the right hind paw of each rat. The right hind paw volume was measured using a Digital Plethysmometer PLM-01 Plus (Orchid Scientifics and Innovatives India Pvt. Ltd., Mumbai, India) at 3 and 4 h after carrageenan therapy. The following calculation was used to compute the percent edema inhibition from the mean effect in the treated and control animals: Percent edema inhibition=Vc-Vt/Vc×100 where Vc denotes the mean increase in paw volume in the control group of rats and Vt denotes the mean increase in paw volume in rats treated with test chemicals. After a 15-day washout period, the same group of rats utilised for the anti-inflammatory activity were employed for the ulcerogenic activity.
A general note: The carrageenan paw model is a standard test of acute inflammation.

Data set [2] has as its system gastric mucosa tissue of rats. The data set is described as follows: Lipid peroxidation in gastric mucosa. Type of data set: in vivo, rat. Particulars: oral 0.0942 mmol/kg. As to the method:
The compounds screened for ulcerogenic potential were also analysed for lipid peroxidation. Lipid peroxidation is measured as nmolMDA/100 mg of gastric mucosa tissue. […] Thus, it was concluded that protection of gastric mucosa might be related to the inhibition of lipid peroxidation.
Lipid peroxidation in the gastric mucosa was determined using the reported method by Ohkawa H. et al.[61]. The gastric mucosa of the glandular area was scraped off using glass slides after the stomach had been examined for ulcers. Gastric mucosa was weighed (100 mg) and homogenised in 1.8 cm^3 of ice-cold solution of KCl (1.15%). The homogenate is further added with 0.2 cm^3 of 8.1% sodium dodecyl sulphate (SDS), 1.5 cm^3 of acetate buffer, and 1.5 cm^3 of 0.8% thiobarbituric acid. After adding all buffers, the mixture was kept for incubation for 60 min over water bath, maintaining the temperature of the water bath at 95 °C. Later, the mixture was allowed to cool and then extracted with a freshly prepared mixture of n-butanol and pyridine (15:1 v/v), the organic layer obtained was centrifuged at 3000 rpm for about 10 min. The organic layer was separated out and visualised on UV–visible spectrophotometer. Concentration was measured using the following formula: Concentration=Absorbance×volume×109÷1.56×10^5×1000
Results obtained were expressed as nmol MDA/100 mg tissue and extinction coefficient (1.56 × 10^5) cm^-1 M^-1.

Data set [3] is described as follows: Acute oral toxicity study. The settings on record: Wistar, rat, in vivo, 500 mg/kg. As to the method: Doxorubicin is used as standard drug […].
Animals (Wistar rats) procured were divided into three groups randomly, with six rats in each group. […] Group III is taken as control; all the animals were treated with 0.5 ml of sunflower oil per rat. All the animals were under observation, and after 24 h, mortality of treated animals was recorded. […] All the experiments performed were carried out with the approval of the IAEC, Jamia Hamdard, New Delhi.

What is called melting point is the temperature of the solid-liquid transition. In turn, `CC1SC(c2c(-c3ccccc3)nc3sccn23)N(c2ccc(F)cc2)C1=O` (stereo not drawn) [Compound 4a, 3-(4-Fluorophenyl)-5-methyl-2-(6-phenylimidazo[2,1-b]thiazol-5-yl) thiazolidin-4-one] came in with a melting point of 165 to 167 °C. Besides, in data set [1], the “% inhibition (paw edema)” value was determined as 79.45%, the “Increase in Paw volume SEM” value turned out to be 0.141 ± 0.025 and the “Activity relative to standard drug” value was 98.91. In data set [2], the Lipid peroxidation was 5.98 ± 0.114 Nmol MDA/100 mg tissue.
Broadly, the LD50 is the dose at which mortality reaches 50%. A lower LD50 goes with greater toxicity. `CC1SC(c2c(-c3ccccc3)nc3sccn23)N(c2ccc(Cl)cc2)C1=O` (stereo not drawn) [Compound 4b, 3-(4-Chlorophenyl)-5-methyl-2-(6-phenylimidazo[2,1-b]thiazol-5-yl) thiazolidin-4-one] gave an LD50 at 14 days in data set [3] of more than 500 mg/kg. In addition, in data set [1], the “% inhibition (paw edema)” value turned out to be 81.34%, the “Increase in Paw volume SEM” value came to 0.128 ± 0.018 and the “Activity relative to standard drug” value was found to be 101.27. The Lipid peroxidation in data set [2] is listed as 4.12 ± 0.159 Nmol MDA/100 mg tissue.
The like results for `CC1SC(c2c(-c3ccccc3)nc3sccn23)N(c2ccc(Br)cc2)C1=O` (stereo not drawn) [Compound 4c, 3-(4-Bromophenyl)-5-methyl-2-(6-phenylimidazo[2,1-b]thiazol-5-yl) thiazolidin-4-one] were, in that order, more than 500 mg/kg, 80.17%, 0.136 ± 0.014, 99.82 and 5.37 ± 0.060 Nmol MDA/100 mg tissue.
